Test results: patent US10183039B2, “Methods for the production of collagen IV” (Vanderbilt University, priority 2013, dated 2019)
One block for each molecule: values may come before it.

What was measured:
collagen IV NC1 hexamer = target: T1, collagen IV NC1 hexamer (Mus musculus, UniProt P02463+P08122); experiment: Hypohalous acid oxidation of purified uncrosslinked NC1 hexamer; conditions: for crosslinked dimeric subunits (percentage of dimeric subunit): 500 nM NC1 hexamer, 5 μM hypohalous acid, 30 min at 37° C. (FIG. 4A); for effect of pretreatment on S═N bond formation by HOBr: NC1 hexamer pretreated with the substance, then treated with HOBr
T1 sequence (P02463 1445-1669 limits assumed): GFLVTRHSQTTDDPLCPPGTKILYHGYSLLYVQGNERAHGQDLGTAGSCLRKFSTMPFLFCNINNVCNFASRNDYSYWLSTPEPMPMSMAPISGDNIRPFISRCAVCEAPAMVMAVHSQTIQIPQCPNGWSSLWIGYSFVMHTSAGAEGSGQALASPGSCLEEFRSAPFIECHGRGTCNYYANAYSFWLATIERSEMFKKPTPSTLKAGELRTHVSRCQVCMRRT
T1 sequence (P08122 1484-1707 limits assumed): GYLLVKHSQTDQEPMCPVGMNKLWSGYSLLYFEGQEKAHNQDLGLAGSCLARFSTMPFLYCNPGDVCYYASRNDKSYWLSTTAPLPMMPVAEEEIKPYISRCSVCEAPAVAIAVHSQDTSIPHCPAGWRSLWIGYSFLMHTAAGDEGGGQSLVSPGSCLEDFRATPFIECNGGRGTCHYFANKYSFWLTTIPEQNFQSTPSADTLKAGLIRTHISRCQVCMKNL

peroxidasin = target: T2, peroxidasin (Mus musculus, UniProt Q3UQ28); experiment: In vitro basement membrane (uncrosslinked PFHR-9 matrix) reaction with halides and H2O2; format: biochemical; conditions: for S═N bond formation in isolated matrix: 10 mM phosphate pH 7.4, 100 mM KF, 1 mM H2O2, 1 h at 37° C.
T2 construct: Cultured murine PFHR9 cells synthesize collagen IV networks that contain sulfilimine crosslinks due to the activity of PXDN; endogenous in cells; host or cells: PFHR-9 cells (isolated matrix from KI-treated culture)
T2 sequence (Q3UQ28 24-1475): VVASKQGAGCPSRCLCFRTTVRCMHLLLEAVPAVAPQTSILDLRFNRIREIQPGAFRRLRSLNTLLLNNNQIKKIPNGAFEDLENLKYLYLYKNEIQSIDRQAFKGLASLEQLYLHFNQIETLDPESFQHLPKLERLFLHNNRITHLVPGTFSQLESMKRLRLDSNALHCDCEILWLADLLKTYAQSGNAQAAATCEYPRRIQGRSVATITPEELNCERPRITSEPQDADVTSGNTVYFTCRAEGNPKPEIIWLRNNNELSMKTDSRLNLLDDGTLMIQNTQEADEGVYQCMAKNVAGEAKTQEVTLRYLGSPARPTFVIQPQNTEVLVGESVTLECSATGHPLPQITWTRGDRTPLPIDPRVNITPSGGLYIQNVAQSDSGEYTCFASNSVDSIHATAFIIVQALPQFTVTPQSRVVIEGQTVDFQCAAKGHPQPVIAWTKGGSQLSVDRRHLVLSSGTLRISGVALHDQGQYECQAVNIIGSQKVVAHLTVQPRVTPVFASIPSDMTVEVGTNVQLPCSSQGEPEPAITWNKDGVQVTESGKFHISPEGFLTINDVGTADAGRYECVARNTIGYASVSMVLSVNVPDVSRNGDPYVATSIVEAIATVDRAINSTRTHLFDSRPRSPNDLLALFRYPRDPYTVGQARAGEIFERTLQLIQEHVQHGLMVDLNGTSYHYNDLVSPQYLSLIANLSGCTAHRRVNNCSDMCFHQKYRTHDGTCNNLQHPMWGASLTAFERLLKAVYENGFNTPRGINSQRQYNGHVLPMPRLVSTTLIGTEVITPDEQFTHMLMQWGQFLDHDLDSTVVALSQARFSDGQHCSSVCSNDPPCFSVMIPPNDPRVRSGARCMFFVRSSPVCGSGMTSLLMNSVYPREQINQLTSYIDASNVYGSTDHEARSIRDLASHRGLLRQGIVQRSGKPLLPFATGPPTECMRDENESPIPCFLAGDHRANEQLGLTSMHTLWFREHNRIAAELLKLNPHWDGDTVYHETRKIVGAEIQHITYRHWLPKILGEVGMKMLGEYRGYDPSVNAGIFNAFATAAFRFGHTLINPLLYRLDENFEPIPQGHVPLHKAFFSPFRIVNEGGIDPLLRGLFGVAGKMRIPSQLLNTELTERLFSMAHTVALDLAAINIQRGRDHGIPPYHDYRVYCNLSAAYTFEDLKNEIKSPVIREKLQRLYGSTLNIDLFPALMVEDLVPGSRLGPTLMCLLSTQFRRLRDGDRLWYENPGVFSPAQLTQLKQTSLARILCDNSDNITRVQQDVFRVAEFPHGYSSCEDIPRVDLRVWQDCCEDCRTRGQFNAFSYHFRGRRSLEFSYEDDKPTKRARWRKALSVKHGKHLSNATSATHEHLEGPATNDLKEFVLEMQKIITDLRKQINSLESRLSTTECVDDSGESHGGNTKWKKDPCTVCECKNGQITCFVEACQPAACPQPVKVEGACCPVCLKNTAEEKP
Procedure: (FIG. 8A) Matrix pellets isolated from KI-treated PFHR9 cell culture were extensively washed into 10 mM phosphate buffer (pH 7.4) supplemented with 100 mM KF to maintain ionic strength. Potassium salts of Cl— or Br— were added in indicated amounts. 1 hr reactions at 37° C. were initiated by addition of H2O2 to 1 mM and stopped by freezing at −20° C. Coomassie blue-stained gels after collagenase digestion of the samples and SDS-PAGE (FIG. 8B) Schematic of Br-Free chloride salt purification apparatus and setup. […] Reagent KCl was commercially obtained and unaltered prior to analysis. 100 mM solutions were made with 18MΩ deionized water. (FIG. 8C) Coomassie blue stained gel of collagenase digested PFHR-9 matrix reaction assay. Reaction buffered contained 10 mM phosphate buffer (pH 7.4), 100 mM Br-Free or Commercially obtained reagent grade KCl, as well as 1 mM H2O2 and 200 μM PHG where appropriate. (FIG. 8D) SDS-PAGE and coomassie blue stain of hPXDN (27.25 nM) and NC1 domain (1.3 μM) reaction and subsequent densiometric quantitation of S═N bond formation stiochiometry in response to NaBr addition. hPXDN and PFHR-9 NC1 domain were prepared and purified as described (5), except with all buffers for all purification steps (dialysis, chromatography, gradient ultracentrifugation) made with Br-Free chloride salts. Reactions were run for 10 minutes at 37° C. with 10 μM H2O2 as the terminal oxidant. Dose-response curve run in the presence of 1× Br-Free PBS. Reactions were quenched with 0.2 mg/ml Catalase, 20 mM Methionine, and 1 mM PHG. EC50 value±95% C.I. from two independent experiments with each data point plotted and fit.
Uncrosslinked PFHR9 matrix was extensively washed into 10 mM phosphate buffer (pH 7.4) that was supplemented with 100 mM KF to maintain ionic strength. One hour reactions at 37° C. were initiated by addition of H2O2 to 1 mM and stopped by freezing at −20° C. […] Samples were digested with collagenase at 37° C. overnight and visualized by SDS-PAGE using 12% gels under non-reducing conditions with Coomassie staining.
PFHR-9 cells treated with potassium iodide (1-10 mM) to eliminate NC1 hexamer crosslinks were used for basement membrane isolation. To test halide dependency, the inventors established halide-free conditions by washing extensively (at least five times) with 10 mM sodium phosphate pH 7.4. To try to extract or inactivate endogenous basement membrane peroxidase activity, the inventors extracted the matrix preparation twice with 2M guanidine-Cl, 50 mM Tris-Cl pH 7.5 and 10 mM EDTA-Na pH 8 followed by extensive washing with 1×PBS. Basement membrane was resuspended in the desired buffer with or without cofactors and inhibitors to examine in vitro NC1 crosslinking under various conditions. Basement membranes were collagenase solubilized to delineate collagen IV NC1 sulfilimine crosslink formation with SDS-PAGE and Coomassie blue staining membrane was isolated, washed extensively and resuspended in 1×PBS. Azide (0-10 mM) and 1 mM H2O2 were added and allowed to react for 1 h at 37° C. The matrix was pelleted, washed extensively with 1×PBS and solubilized with 1×PBS plus 2% (w/v) SDS. Solubilized proteins were reacted with 100 μM Tris[(1-benzyl-1H-1,2,3-triazol-4-yl)methyl]amine (Anaspec), 1 mM Tris(2-carboxyethyl)phosphine hydrochloride (ThermoFisher Pierce), 1 mM cupric sulfate and 100 μM biotin alkyne (PEG4 carboxamide-propargyl biotin; Life Technologies) for 1 h at 37° C. Click chemistry reactions were quenched with 1 mM 3′-azido-3′-deoxythymidine (Sigma). For avidin-HRP detection, samples were electrophoresed under reducing conditions, transferred to nitrocellulose membranes and probed with streptavidin-HRP according to manufacturer instructions (ThermoFisher Pierce). To isolate biotinylated proteins, the inventors precipitated click reaction products with two volumes of cold acetone to remove reactants, washed them with 70% (v/v) acetone and then resolubilized them in 1×PBS plus 2% SDS.

PFHR-9 cells = experiment: Collagen IV sulfilimine crosslink formation in PFHR-9 cell culture (NC1 hexamer, SDS-PAGE); format: cell-based, mouse; conditions: for effect on NC1 dimer / crosslink formation in culture: PFHR9 matrix grown 5-8 days with potassium halide salts, SDS-PAGE; for IC50: halide/pseudohalide screen in cell culture, read-out: IC50, inhibition of S═N formation
[1] = matrix grown 5-8 days with potassium salts, 95% CI

crosslinked dimeric subunits (percentage of dimeric subunit) (collagen IV NC1 hexamer): increased significantly | crosslinked dimeric subunits (percentage of dimeric subunit) (collagen IV NC1 hexamer; listed as hypochlorous acid): yielded crosslinked dimeric subunits | concentration required to drive S═N bond formation (collagen IV NC1 hexamer; 5 μM NC1 hexamer, 5 minutes at 37° (FIG. 9A)): 50 µM | S═N bond formation as share of total Met93 oxidized (collagen IV NC1 hexamer; oxidation event 1 (OE1), S—Cl or S—Br halosulfonium intermediate): 19%
SMILES: OCl [HOCl, hypochlorous acid]
effect of pretreatment on S═N bond formation by HOBr (collagen IV NC1 hexamer): decreased with pretreatment of increasing levels of HOCl

SMILES: [F-].[K+] [Fluoride, potassium fluoride]
S═N bond formation in isolated matrix (peroxidasin): inert

SMILES: [Br-].[K+] [KBr, potassium bromide]
effect on NC1 dimer / crosslink formation in culture (PFHR-9 cells): dimer enhancement | EC50 (PFHR-9 cells; halide screen in cell culture, matrix grown 5-8 days with potassium salts, 95% CI, read-out: EC50, enhancement of S═N formation): 75 µM

sulfilimine bond formation in isolated basement membrane (peroxidasin; inhibitor removed, with versus without H2O2 (FIG. 2C)): Sulfilimine bonds formed rapidly
SMILES: OO [H2O2, hydrogen peroxide]
effect of pretreatment on S═N bond formation by HOBr (collagen IV NC1 hexamer): dose-dependent decrease in the crosslinking efficacy of HOBr

SMILES: N#C[S-].[K+] [KSCN, potassium thiocyanate]
effect on NC1 dimer / crosslink formation in culture (PFHR-9 cells): dimer inhibition | effect on NC1 dimer / crosslink formation in culture (PFHR-9 cells; listed as SCN^−): potent inhibitor of peroxidasin-mediated crosslink formation | IC50 (PFHR-9 cells; [1]): 17 µM

SMILES: [I-].[K+] [potassium iodide]
S═N bond formation in isolated matrix (peroxidasin): demonstrated no S═N formation | S═N bond formation in isolated matrix (peroxidasin; listed as KI): did not faciliate crosslinking | effect on NC1 dimer / crosslink formation in culture (PFHR-9 cells): dimer inhibition | IC50 (PFHR-9 cells; [1]): 84 µM | formation of collagen IV crosslinks (PFHR-9 cells; inhibitor present during cellular deposition of basement membrane, FIG. 2A: PHG 50 μM, MMI 1 mM, KI 10 mM, 3-AT 10 mM, BAPN 500 μM, putrescine 2.5 mM): inhibited collagen IV crosslink formation

SMILES: [Cl-].[K+] [Br-free KCl, KCl]
dimer formation with bromide-free chloride as halide source (peroxidasin; 100 mM Br-free chloride salt, 1 mM H2O2, isolated PFHR-9 matrix): did not support dimer formation to levels comparable with untreated controls
